Measured values from patent US20120225837A1, “MEDICINAL AGENT FOR DISEASE ASSOCIATED WITH EPSTEIN-BARR VIRUS, AND METHOD FOR SCREENING OF THE MEDICINAL AGENT” (Kyoto University, priority 2007, published 2012).
Like-named read-outs stand apart in the source and are kept apart here.

How the values were obtained:
143B/EB virus-TK cells = test: cells; settings: read-out: CC50 143B/EB Virus-TK
Excerpt: (§1) At first, a primer was designed on the basis of the data base information of NCBI, followed by extracting DNA from B95a cells (J. Virol. 1990; 64(2): 700-5), and the TK gene of an EB virus was amplified by PCR method and cloned in the multicloning site of an expression plasmid vector pCI-neo (pCI-EB-TKneo). Similarly, human-TK gene was also amplified by PCR method and cloned (pCI-huTKneo). Whether the cloned gene fragment was a desired gene or not was judged by determining the base sequence.
(§2) Then, TK-defect human osteosarcoma cells (143B) was transfected by lipofection method (Proc. Natl. Acad. Sci. USA 1987 November; 84(21): 7413-7) with the plasmid vector capable of expressing EB virus-TK gene or the plasmid vector capable of expressing human-TK gene, namely, pCI-EB-TKneo or pCI-huTKneo, and cells having each plasmid introduced therein were selected by the use of neomycin.
(§3) The drug sensitivity of 143B/EB virus-TK, 143B/hu-TK, 143B TK(−) cells and EB virus persistent infection cells was determined on the basis of the cytotoxicity of each drug. That is, cells (143B/EB virus-TK, 143B/hu-TK and 143B TK(−) cells: 5×10^4 cells/100 μl; EB virus persistent infection cells: 20×10^4 cells/100 μl) were added to 96-well flat-bottom culture plates containing 100 μl of various concentrations of each drug. After 5 days of culture, the number of surviving cells was determined by MTT [3-(4,5-dimethylthiazol-2-yl)-2,5-diphenyltetrazolium bromide] assay. The cytotoxicity of the test drugs is expressed in terms of a concentration (CC50) at which the cell viability was decreased to 50%.

143B/hu-TK cells = test: MTT cytotoxicity assay, cell having human-TK gene introduced; format: cell-based
Excerpt: as §1, §2, §3

[1] = as above; format: cell-based; settings: human
Excerpt: as §1, §2, §3

Raji cells = test: MTT cytotoxic effect on EB virus infection cancer cells (Raji); format: cell-based; settings: expression of TK −, MTT assay
Procedure: as §3
(§4) The cytotoxic effect of the medicinal agent of the present invention on EB virus infection cancer cells such as NC37 cells was investigated by MTT assay. […] However, neither of them was effective in cells in which EB virus-TK gene had not been expressed.

B95a cells = test: MTT cytotoxic effect on EB virus infection cancer cells (B95a); format: cell-based; settings: expression of TK +, MTT assay
Procedure: as §3, §4

Namalwa cells = test: MTT cytotoxic effect on EB virus infection cancer cells (Namalwa); format: cell-based; settings: expression of TK −, MTT assay
Procedure: as §3, §4

HS-Sultan cells = test: MTT cytotoxic effect on EB virus infection cancer cells (HS-Sultan); format: cell-based; settings: expression of TK −, MTT assay
Procedure: as §3, §4

KAI3 cells = test: MTT assay on cells with a chronic active EB virus infectious disease; format: cell-based
Procedure: as §3
A chronic active EB virus infectious disease is an unfavorable infectious disease caused by infection of not B cells but natural killer T cells (NKT cells) with an EB virus. As such a chronic infection cell strain, KAI3 cells (Clin. Exp. Immunol. 1999 March; 115(3): 385-92) were purchased from Health Science Research Resources Bank, and the effect of the medicinal agent of the present invention on them was investigated by MTT assay. GCV was used as a control agent.

NC37 cells = test: MTT cytotoxic effect on EB virus infection cancer cells (NC37); format: cell-based; settings: NC37, expression of TK +, MTT assay
Procedure: as §3, §4

EB virus = test: Acute infection of B lymphocytes with EB virus, EB virus DNA by real-time PCR; format: cell-based; settings: B lymphocytes of a healthy person, cultured 2 weeks, PBMC#1287 and PBMC#5926, FIG. 2
Procedure: B lymphocytes were separated from the blood of a healthy person. The B lymphocytes were infected with an EB virus in the presence of the medicinal agent of the present invention and cultured for 2 weeks. Thereafter, the infected B cells were recovered and then washed, followed by extraction of DNA. The amount of EB virus DNA in the B lymphocytes was determined by real-time PCR and taken as a virus copy number.

[2] = MTT assay, 5 days of culture, read-out: CC50 143B/hu-TK

Compound: 1-(2-deoxy-2-fluoro-4-thio-β-D-arabinofuranosyl)cytosine [4′-S-FMAC]
- CC50 (143B/EB virus-TK cells; MTT assay, 5 days of culture): 0.066 µM
- CC50 (143B/hu-TK cells; [2]): 0.04 µM

Compound: Cc1cn(C2(C#N)C[C@H](O)[C@@H](CO)O2)c(=O)[nH]c1=O (stereo partly shown) [1′-CN-dT, 1-(C-cyano-2-deoxy-ribofuranosyl)thymine]
- CC50 (143B/EB virus-TK cells; MTT assay, 5 days of culture): > 100 µM
- CC50 (143B/hu-TK cells): > 100 µM

Compound: O=c1[nH]c(=O)n([C@H]2C[C@H](O)[C@@H](CO)O2)cc1F [5FdU, 5-fluoro-2′-deoxyuridine]
- CC50 (143B/EB virus-TK cells; Homo sapiens, 143B, 120 h): 0.4 µM
- CC50 at 5 days [1]: 0.27 µM

Compound: Nc1nc2c(ncn2COCCO)c(=O)[nH]1 [ACV, acyclovir]
- CC50 at 5 days [1]: > 100 µM

Compound: O=c1[nH]c(=O)n([C@H]2C[C@H](O)[C@@H](CO)O2)cc1C=CBr [BVDU, 5-bromovinyl-2′-deoxyuridine]
- CC50 (143B/EB virus-TK cells; Homo sapiens, 143B, 120 h): 122 µM
- CC50 at 5 days [1, 2]: > 300 µM

Compound: O=c1[nH]c(=O)n([C@@H]2O[C@H](CO)[C@@H](O)[C@@H]2O)cc1C=CBr [BvaraU, 1-β-D-arabinofuranosyl-5-bromovinyluracil]
- CC50 (143B/EB virus-TK cells; Homo sapiens, 143B, 120 h): > 200 µM
- CC50 at 5 days [1]: > 200 µM

Compound: Nc1nc(O)c2ncn(COC(CO)CO)c2n1 [GCV, ganciclovir]
- CC50 (143B/EB virus-TK cells; Homo sapiens, 143B, 120 h): > 100 µM
- Cytotoxic effect on EB virus infection cancer cells (Raji cells): 55 µM
- CC50 at 5 days [1]: > 100 µM
- Cytotoxic effect on EB virus infection cancer cells (B95a cells): 36 µM
- Cytotoxic effect on EB virus infection cancer cells (Namalwa cells): >100 µM
- Cytotoxic effect on EB virus infection cancer cells (HS-Sultan cells): >100 µM
- Effect on cells with a chronic active EB virus infectious disease (KAI3 cells): 105 µM
- Cytotoxic effect on EB virus infection cancer cells (NC37 cells): 27 µM

Compound: Cc1cn([C@@H]2S[C@H](CO)[C@@H](O)[C@@H]2F)c(=O)[nH]c1=O [Medicinal agent of the invention, 1-(2-deoxy-2-fluoro-4-thio-β-D-arabinofuranosyl)-5-methyluracil]
- CC50 (143B/EB virus-TK cells; Homo sapiens, 143B, 120 h): 0.11 µM
- Cytotoxic effect on EB virus infection cancer cells (Raji cells): 22 µM
- Amount of EB virus DNA in the B lymphocytes (virus copy number) (EB virus): reduces the amount of EB virus DNA in the B lymphocytes and inhibits new infection
- CC50 at 5 days [1]: > 300 µM
- Cytotoxic effect on EB virus infection cancer cells (B95a cells): 2.2 µM
- Cytotoxic effect on EB virus infection cancer cells (Namalwa cells): >100 µM
- Cytotoxic effect on EB virus infection cancer cells (HS-Sultan cells): >100 µM
- Effect on cells with a chronic active EB virus infectious disease (KAI3 cells): 4.7 µM
- Cytotoxic effect on EB virus infection cancer cells (NC37 cells): 2.1 µM
